Experimental data reported in ChEMBL document CHEMBL1128046, “Inhibitors of acyl-coa:cholesterol acyltransferase (ACAT). 15. sulfonylurea inhibitors with excellent hypocholesterolemic activity in vivo” (Bioorg Med Chem Lett, 1995).
pIC50: −log10 of the molar value. Activity calls are given as the source filed them. No cut-off for these calls is given here.

Tests used:
[1] = target: T1, Sterol O-acyltransferase 1 (Rattus norvegicus, UniProt O70536); assay: Inhibition of Acyl-CoA: Cholesterol Acyltransferase (ACAT) in liver microsomes of cholesterol fed rats; set-up: species or system Microsome
T1 sequence (O70536 whole entry): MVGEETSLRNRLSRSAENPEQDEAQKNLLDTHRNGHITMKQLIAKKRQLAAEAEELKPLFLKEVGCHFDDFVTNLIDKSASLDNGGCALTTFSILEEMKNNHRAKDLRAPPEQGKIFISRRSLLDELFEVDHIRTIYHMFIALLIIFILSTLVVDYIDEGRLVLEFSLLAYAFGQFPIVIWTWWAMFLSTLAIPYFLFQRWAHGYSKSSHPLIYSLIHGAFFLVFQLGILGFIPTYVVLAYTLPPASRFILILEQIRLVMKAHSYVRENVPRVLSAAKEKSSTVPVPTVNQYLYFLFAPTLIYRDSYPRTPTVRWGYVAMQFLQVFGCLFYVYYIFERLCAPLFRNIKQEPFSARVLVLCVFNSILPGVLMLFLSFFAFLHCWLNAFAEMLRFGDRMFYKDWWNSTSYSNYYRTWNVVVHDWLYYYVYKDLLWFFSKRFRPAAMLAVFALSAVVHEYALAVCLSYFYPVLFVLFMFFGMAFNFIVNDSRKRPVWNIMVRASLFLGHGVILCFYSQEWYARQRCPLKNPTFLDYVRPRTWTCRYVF

[2] = system: Rattus norvegicus; assay: Hypocholesterolemic activity expressed as percent change in total cholesterol in chronic cholesterol fed rats (CPCC) at dose 30 mg/kg; assay type: functional
[3] = system: Rattus norvegicus; assay: Hypocholesterolemic activity expressed as percent change in total cholesterol in acute cholesterol fed rats (APCC) at dose 3 mg/kg; assay type: functional
[4] = target: T2, O-acyltransferase (Oryctolagus cuniculus, UniProt G1SFD9); assay: Inhibition of Acyl-CoA: Cholesterol Acyltransferase (ACAT) in intestinal microsomes of cholesterol fed rabbits; set-up: species or system Intestine
T2 sequence (G1SFD9 1-524): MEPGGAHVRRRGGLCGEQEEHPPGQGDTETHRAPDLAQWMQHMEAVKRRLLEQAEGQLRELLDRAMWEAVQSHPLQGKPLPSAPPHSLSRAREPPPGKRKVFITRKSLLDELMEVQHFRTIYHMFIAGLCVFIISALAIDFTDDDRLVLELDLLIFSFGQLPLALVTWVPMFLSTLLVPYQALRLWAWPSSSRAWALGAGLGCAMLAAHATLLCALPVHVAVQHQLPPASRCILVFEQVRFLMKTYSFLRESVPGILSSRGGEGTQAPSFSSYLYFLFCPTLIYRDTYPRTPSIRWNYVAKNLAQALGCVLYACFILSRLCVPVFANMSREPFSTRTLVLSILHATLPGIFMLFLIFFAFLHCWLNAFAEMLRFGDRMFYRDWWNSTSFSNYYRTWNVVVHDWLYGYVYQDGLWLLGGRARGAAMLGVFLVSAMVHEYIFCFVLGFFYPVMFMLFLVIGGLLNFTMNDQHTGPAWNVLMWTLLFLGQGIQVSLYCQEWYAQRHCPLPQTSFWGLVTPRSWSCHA

[5] = system: Rattus norvegicus; assay: Hypocholesterolemic activity expressed as percent change in total cholesterol in acute cholesterol fed rats (APCC) at dose 30 mg/kg; assay type: functional
[6] = target: T3, Acyl-CoA:cholesterol acyltransferase (Oryctolagus cuniculus) (UniProt Q95214); assay: (§1) Compound at 5 uM concentration was tested in vitro for inhibition of Acyl-CoA: Cholesterol Acyltransferase (ACAT) in intestinal microsomes of cholesterol fed rabbits; conditions: Intestine
T3 sequence (whole entry): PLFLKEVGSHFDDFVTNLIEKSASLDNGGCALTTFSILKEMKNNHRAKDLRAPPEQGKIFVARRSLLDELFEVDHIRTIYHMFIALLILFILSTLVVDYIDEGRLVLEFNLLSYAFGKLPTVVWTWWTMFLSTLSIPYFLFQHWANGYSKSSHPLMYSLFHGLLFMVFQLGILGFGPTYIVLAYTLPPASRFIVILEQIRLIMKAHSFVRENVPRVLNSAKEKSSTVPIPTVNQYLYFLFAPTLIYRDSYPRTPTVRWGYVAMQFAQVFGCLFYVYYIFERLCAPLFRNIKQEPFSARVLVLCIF

[7] = system: Rattus norvegicus; assay: Hypocholesterolemic activity expressed as percent change in total cholesterol in chronic cholesterol fed rats (CPCC) at dose 3 mg/kg; NC means no change; assay type: functional, organism-based; set-up: dose 3 mg/kg
[8] = target: T1, Sterol O-acyltransferase 1; assay: (§2) Compound at 5 uM concentration was tested in vitro for inhibition of Acyl-CoA: Cholesterol Acyltransferase (ACAT) in liver microsomes of cholesterol fed rats; set-up: species or system Microsome
[9] = system: Rattus norvegicus; assay: Hypocholesterolemic activity expressed as percent change in total cholesterol in acute cholesterol fed rats (APCC) at dose 30 mg/kg; NC means no change; assay type: functional, organism-based; set-up: dose 30 mg/kg
[10] = system: Rattus norvegicus; assay: Hypocholesterolemic activity expressed as percent change in total cholesterol in chronic cholesterol fed rats (CPCC) at dose 3 mg/kg; assay type: functional
[11] = target: T4, Sterol O-acyltransferase 1 (Rattus norvegicus) (UniProt O70536); assay: as §2; conditions: Microsome
T4 sequence (whole entry): T1 sequence (O70536 whole entry)

[12] = target: T4, Sterol O-acyltransferase 1 (Rattus norvegicus); assay: Compound at 10 uM concentration was tested in vitro for inhibition of Acyl-CoA: Cholesterol Acyltransferase (ACAT) in liver microsomes of cholesterol fed rats; conditions: Microsome
[13] = target: T2, O-acyltransferase; assay: as §1; set-up: species or system Intestine

| SMILES | pIC50 [1] | Change [2] [%] | Change [3] [%] | pIC50 [4] | Change [5] [%] | Change [10] [%] | other results |
| --- | --- | --- | --- | --- | --- | --- | --- |
| CCCCCCCCCCS(=O)(=O)NC(=O)Nc1c(C(C)C)cccc1C(C)C | 4.87 | -47 | -40 | 4.95 | -52 |  |  |
| CCCCCCCCCCCCCS(=O)(=O)NC(=O)Nc1c(C(C)C)cccc1C(C)C | 5.70 | -69 | -42 | 5.92 | -62 |  |  |
| CCCCCCCCS(=O)(=O)NC(=O)Nc1c(C(C)C)cccc1C(C)C | 4.65 | -59 | -31 |  | -74 |  | inhibition [6]: 24% |
| CCCCCCCCCCCCCC(c1ccccc1)S(=O)(=O)NC(=O)Nc1c(C(C)C)cccc1C(C)C (stereo not given) | 5.64 | -62 | -69 |  | -72 |  | Change [7]: inactive |
| CCCCCCCCCCCCCCS(=O)(=O)N(Cc1ccccc1)C(=O)Nc1c(C(C)C)cccc1C(C)C |  |  |  | 6.28 |  |  | pIC50 [8]: 4.42; Change [9]: inactive |
| CCCCCCCCCCCCCC(C)(C)S(=O)(=O)NC(=O)Nc1c(C(C)C)cccc1C(C)C | 6.17 | -59 | -55 |  | -52 | -26 |  |
| CCCCCCCCCCCCCCS(=O)(=O)NC(=O)Nc1c(OC)cc(OC)cc1OC |  |  | -31 |  | -47 |  | inhibition [11]: 40% |
| CCCCCCCCCCCCCC(C)(C)S(=O)(=O)NC(=O)Nc1c(OC)cc(OC)cc1OC | 5.09 |  | -18 |  | -76 | -13 |  |
| CCCCCCCCCCCCCCS(=O)(=O)N(C)C(=O)Nc1c(C(C)C)cccc1C(C)C | 5.05 |  | -20 |  | -48 |  | inhibition [6]: 34% |
| CCCCCCCCCCCCCCS(=O)(=O)NC(=O)Nc1ccc(F)cc1F |  |  | -14 |  |  |  | inhibition [12]: 0%; inhibition [6]: 49% |
| CCCCCCCCCCCCS(=O)(=O)NC(=O)Nc1c(C(C)C)cccc1C(C)C | 5.48 | -53 | -59 | 5.63 | -63 | -35 |  |
| CCCCCCCCCCCCCCS(=O)(=O)NC(=O)Nc1c(C(C)C)cccc1C(C)C | 6.03 | -58 | -60 |  | -56 | -46 |  |
| CCCCCCCCCCCCCC(C)S(=O)(=O)NC(=O)Nc1c(C(C)C)cccc1C(C)C (stereo not given) | 6.08 | -61 | -61 |  | -76 | -26 |  |
| CCCCCCCCC(C)S(=O)(=O)NC(=O)Nc1c(C(C)C)cccc1C(C)C (stereo not given) | 5.89 | -58 | -32 |  | -69 | -46 |  |
| CCCCCCCCCCCCCCCCC(C)S(=O)(=O)NC(=O)Nc1c(C(C)C)cccc1C(C)C (stereo not given) | 5.86 | -36 | -58 |  | -76 |  |  |
| CCCCCCCCCCCCS(=O)(=O)N(C)C(=O)Nc1c(C(C)C)cccc1C(C)C | 6.17 |  | -18 | 7.07 | -49 |  |  |
| CCCCCCCCCCCCCCCCC(C)S(=O)(=O)NC(=O)Nc1c(OC)cc(OC)cc1OC (stereo not given) | 7.07 | -18 | -12 |  | -53 |  |  |
| CCCCCCCCCCCCCCCCS(=O)(=O)NC(=O)Nc1c(C(C)C)cccc1C(C)C | 5.90 | -10 | -58 | 5.87 | -64 |  |  |
| CCCCCCCCC(c1ccccc1)S(=O)(=O)NC(=O)Nc1c(C(C)C)cccc1C(C)C (stereo not given) | 5.04 | -74 | -62 |  | -75 | -48 | pIC50 [13]: 5.96 |
| CC(C)c1cccc(C(C)C)c1OC(=O)[N-]S(=O)(=O)Oc1c(C(C)C)cccc1C(C)C.[Na+] |  | -64 | -59 |  | -74 | -64 |  |
